From the supplement of paper PMC10307832

What was measured:
Experiment in all cases: relative viability (nuclei count vs DMSO), 5 days (fraction); higher = more cells survive
[1] = compound: O=C(/C=C/c1cccnc1)NCCCCC1CCN(C(=O)c2ccccc2)CC1 [Daporinad] + CC(C)C[C@H](NC(=O)[C@H](Cc1ccccc1)NC(=O)c1cnccn1)B(O)O [Bortezomib] (partner 0.002 µM)
How it was run: (§1)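 Relative viability divides the nuclei count in treated wells by that in vehicle wells. Lung cancer cell lines were seeded in 1536-well plates, dosed by pin tool the next day, and fixed and stained after 5 days in one step with final 0.05% Triton X-100, 1% formaldehyde and 1 ug/ml Hoechst. Dosing was a single drug or a fixed anchor-drug dose plus five library-drug doses (not always all listed) in √10 steps, and values are medians of duplicate plates imaged at 4×.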

[2] = compound: O=C(/C=C/c1cccnc1)NCCCCC1CCN(C(=O)c2ccccc2)CC1 [Daporinad] + O=C(CCCCCCC(=O)Nc1ccccc1)NO [Vorinostat] (partner 1 µM)
How it was run: as §1

[3] = compound: COc1cc(Nc2ncc(F)c(Nc3ccc4c(n3)NC(=O)C(C)(C)O4)n2)cc(OC)c1OC [R406] + C[C@@H](Oc1cc(-c2cnn(C3CCNCC3)c2)cnc1N)c1c(Cl)ccc(F)c1Cl [Crizotinib] (partner 1 µM)
How it was run: as §1

[4] = compound: COc1cc(Nc2ncc(F)c(Nc3ccc4c(n3)NC(=O)C(C)(C)O4)n2)cc(OC)c1OC [R406] + CC(=O)c1c(C)c2cnc(Nc3ccc(N4CCNCC4)cn3)nc2n(C2CCCC2)c1=O [Palbociclib] (partner 0.5 µM)
How it was run: as §1

Cell Line	relative viability ([1]; first compound 0.0005 µM)	relative viability ([1]; first compound 0.001581 µM)	relative viability ([1]; first compound 0.005 µM)	relative viability ([1]; first compound 0.01581 µM)	relative viability ([2]; first compound 0.0005 µM)	relative viability ([2]; first compound 0.001581 µM)	relative viability ([2]; first compound 0.005 µM)	relative viability ([2]; first compound 0.01581 µM)	relative viability ([3]; first compound 0.08 µM)	relative viability ([3]; first compound 0.253 µM)	relative viability ([3]; first compound 0.8 µM)	relative viability ([3]; first compound 2.53 µM)	relative viability ([3]; first compound 8 µM)	relative viability ([4]; first compound 0.08 µM)	relative viability ([4]; first compound 0.253 µM)	relative viability ([4]; first compound 0.8 µM)	relative viability ([4]; first compound 2.53 µM)	relative viability ([4]; first compound 8 µM)
201T	1.08	1.11	1.07	1.11	0.965	1.08	1.05	1.04	0.994	1.06	1.03	1.05	0.974	0.375	0.399	0.349	0.394	0.285
A549									0.785	0.837	0.941	0.337	0.175					
A-427	0.952	1.02	0.974	0.784	0.838	0.886	0.793	0.659	1	1.14	0.914	0.629	0.273	0.516	0.596	0.575	0.477	0.446
ABC-1	0.265	0.32	0.312	0.309	0.809	1.51	1.46	0.9	1.24	1.38	1.19	0.841	0.311	0.777	0.784	0.48	0.653	0.492
BEN	0.805	0.796	1.04	1.12	0.554	0.661	0.679	0.63	0.923	1.32	1.15	0.785	0.641	0.439	0.502	0.495	0.561	0.422
CAL-12T	0.925		0.817	0.392	0.659	0.799	0.402	0.217	0.693	0.746	0.731	0.503	0.121	0.425	0.612	0.549	0.142	0.158
COR-L23	1.01	0.973	0.753	0.212	0.427	0.345	0.408	0.161	0.612	0.797	0.733	0.708	0.383	0.224	0.346	0.342	0.166	0.157
COR-L 105	0.827	0.815	0.781	0.753	0.775	0.705	0.861	0.851	0.955	0.89	0.822	0.8	0.263	0.374	0.386	0.39	0.316	0.33
Calu-6	0.957	1.04	0.848	0.352					0.697	0.954	0.909	0.494	0.36					
ChaGo-K-1	0.912	0.574	0.859	0.562	0.832	0.743	0.677	0.283	1.1	0.936	1.23	1.01	0.702	0.768	0.98	1.02	0.928	0.706
EBC-1	0.546	0.506	0.558	0.623					0.155	0.231	0.153	0.209	0.166					
EKVX	0.939	1.16	1.12	1.12	0.621	0.825	0.841	0.851	0.949	0.986	1.09	0.867	0.806	0.362	0.417	0.373	0.333	0.315
EMC-BAC-2	1.22	1.04	1.06	0.301	0.319	0.567	0.421	0.301	0.747	0.855	0.796	0.738	0.262	0.518	0.538	0.508	0.44	0.378
EPLC-272H	0.86	1.04	0.98	1.14	0.408	0.531	0.401	0.294	0.798	1.07	1.09	0.533	0.49	0.329	0.337	0.326	0.246	0.303
H3255	0.642	0.806	0.865	0.888	0.668	0.591	0.775	0.979	0.82	1.13	0.873	0.761	0.77	0.295	0.331	0.336	0.358	0.284
HARA	0.979	1.12	1.15	0.345	0.39	0.527	0.518	0.663	0.902	1.06	1.13	1.09	0.376	0.334	0.198	0.223	0.264	0.132
HCC-15	0.989	1.13	1.07	1.04	0.782	0.959	0.889	0.911	0.837	1.01	0.834		0.635	0.818	0.827	0.801	0.728	0.594
HCC-44	0.83	0.843	0.841	0.825	0.928	1.18	1.19	1.03	0.771	0.963	0.806	0.721	0.341	0.945	0.982	0.858	1.02	1.16
HCC-78	0.367	0.502	0.345	0.642	0.368	0.414	0.345	0.5	0.356	0.318	0.398	0.302	0.269	0.457	0.525	0.501	0.467	0.427

Cell Line	relative viability ([1]; first compound 0.0005 µM)	relative viability ([1]; first compound 0.001581 µM)	relative viability ([1]; first compound 0.005 µM)	relative viability ([1]; first compound 0.01581 µM)	relative viability ([2]; first compound 0.0005 µM)	relative viability ([2]; first compound 0.001581 µM)	relative viability ([2]; first compound 0.005 µM)	relative viability ([2]; first compound 0.01581 µM)	relative viability ([3]; first compound 0.08 µM)	relative viability ([3]; first compound 0.253 µM)	relative viability ([3]; first compound 0.8 µM)	relative viability ([3]; first compound 2.53 µM)	relative viability ([3]; first compound 8 µM)	relative viability ([4]; first compound 0.08 µM)	relative viability ([4]; first compound 0.253 µM)	relative viability ([4]; first compound 0.8 µM)	relative viability ([4]; first compound 2.53 µM)	relative viability ([4]; first compound 8 µM)
HCC-366	0.971	1.1	1.12	1.04	0.363		0.389	0.321	0.581	0.794	0.81		0.294	0.36	0.465	0.387	0.262	0.0616
HCC-827	1.06	0.965	1.14	1.13	0.929	0.871	0.913	0.906	0.975	0.952	0.899	0.841	0.409	0.508	0.538	0.517	0.422	0.373
IA-LM	0.746	0.807	0.872	0.491	0.855	1.25	0.986	1.09	0.972	1.21	1.01	1.11	0.657					
LK-2					0.28	0.331	0.307	0.256	0.275	0.224	0.178	0.255	0.259	0.592	0.679	0.854	0.574	0.542
NCI-H358					0.688	0.75	0.801	0.558	0.639	0.587	0.498	0.434	0.221	0.12	0.192	0.126	0.0867	0.0882
NCI-H522					0.995	1.13	0.946	0.544						1.11	0.916	0.969	0.899	0.719
NCI-H596	1.05	1.02	0.998	0.788	0.582	0.321	0.737	0.4	0.837	1.1	1.09	0.796	0.245					
NCI-H1299	1.02	1.02	1.04	1.04					0.941	0.946	0.977	1.03	0.543					
NCI-H1395					0.627	0.795	0.94	0.794						0.609	0.663	0.652	0.47	0.551
NCI-H1563	0.917	0.958	0.838	0.691					0.791	0.868	0.891	0.913	0.619					
NCI-H1648					0.439	0.333	0.424	0.41						0.276	0.275	0.301	0.296	0.303
NCI-H1703	0.403	0.382	0.422	0.196					0.623		0.662	0.199	0.129					
NCI-H1792	0.924	0.98	0.711	1					0.842	1.03	1.03	0.925	0.884	0.603	0.721	0.708	0.506	0.518
NCI-H1793					0.542	0.508	0.809	0.969						0.352	0.309	0.253	0.28	0.153
NCI-H1944					0.57	0.524	0.647	0.613	1.1	1.24	1.04	0.875	0.737	0.333	0.312	0.329	0.252	0.241
NCI-H2170					0.769	0.81	0.827	0.822	1.16	1.25	1.15	0.815	0.495	0.379	0.393	0.452	0.264	0.419
NCI-H2342					0.806	0.791	0.695	0.815						0.518	0.508	0.504	0.474	0.509
SK-MES-1					1	1.2	1.26	1.01	0.992	1.04	0.959	0.73	0.43	0.313	0.297	0.307	0.259	0.192
SW 900					0.461		0.86	0.3						0.471	0.559	0.518	0.617	0.096
